Measured values: publication PMC12655637, “Design, Synthesis, and Mechanistic Study of Novel Ciprofloxacin/Thiazole Chalcone Hybrids as Potential Anticancer Agents” (Pharmaceuticals, 2025)

Legend:
CAKI-1 = experiment: NCI-60 screening, one-dose (10 µM) and five-dose, SRB; assay type: cell-based; conditions: five-dose, CAKI-1
SN12C = experiment: as above; assay type: cell-based, human
SF-268 = experiment: as above; assay type: cell-based, human
OVCAR-4 = experiment: as above; assay type: cell-based, human
HL-60(TB) = experiment: as above; assay type: cell-based, human; conditions: HL-60(TB)
786−0 = experiment: as above; assay type: cell-based, human
UACC-62 = experiment: as above; assay type: cell-based
SW-620 = experiment: as above; assay type: cell-based, human
NCI-H460 = experiment: as above; assay type: cell-based, human
COLO 205 = experiment: as above; assay type: cell-based, human
[1] = tested on: 60 human cancer cell lines; experiment: NCI-60 screening, full panel (mean growth, MID a, ranges over all lines)
Protocol: The screening was performed in accordance with the protocols set forth by the Drug Evaluation Department of the National Cancer Institute (NCI), Bethesda, USA, for in vitro anticancer efficacy at a single concentration of 10 µM against a panel of 60 cancer cell lines derived from nine distinct organs (https://dctd.cancer.gov/data-tools-biospecimens/data (accessed on 15 March 2023 and 6 January 2024)) [37].
(§1) The log10 GI50, log10 TGI, and log10 LC50 values were subsequently calculated as the averages of the log10 values of the respective individual GI50, TGI, and LC50 measurements. Negative numbers signified the most sensitive cell lines.
(§2) One way to measure a compound’s selectivity is to divide its subpanel MID^b (in μM) by the MID^a (in μM), which is the average sensitivity of all cell lines to the test agent.
At the National Cancer Institute (NCI) in Bethesda, USA, researchers examined the anticancer potential of the target compounds under investigation using nine panels of sixty different cell lines obtained from nine different cancers that were housed in the NCI library. Following the protocols laid out by the National Cancer Institute (https://dctd.cancer.gov/data-tools-biospecimens/data (accessed on 15 March 2023 and 6 January 2024)), the screening procedures were carried out [37]. The anticancer screening was carried out at a single dose of 10^−5 M; the results obtained were expressed as growth inhibition (%).
The anti-cancer potential of the tested compounds was evaluated at the National cancer institute (NCI), Bethesda, USA, against 9 panels of 60 various cell lines derived from nine human tumours available usually at NCI library. The procedures for the screening were described in details in NCI website (dttp://www.dtp.nci.nih.gov.) and were done according to NCI protocols. The anticancer screening was carried out at single dose of 10^-5 M. The results obtained as growth inhibition (%).
(§3) Cell lines were grown in Roswell Park Memorial Institute medium (RPMI) with 5% fetal bovine serum and 2% μM L-glutamine. Cancer cells are inoculated into 96 well microtiter plates in 100 μL at plating densities ranging from 5000 to 40,000 cells/well depending on the doubling time of individual cell lines. Then microtiter plates are incubated at 37 °C, 5% CO2, 95% air and 100% relative humidity for 24 h prior to the addition of the tested compounds. After 24 h, two plates of each cell line are fixed in situ with trichloroacetic acid (TCA). The tested compounds were dissolved in dimethyl sulfoxide (DMSO) and stored in the freezer prior to use. An aliquot of frozen drug concentrate is diluted to the desired concentration with complete medium containing 50 μg/mL gentamicin.

IGROV1 = experiment: NCI-60 screening, one-dose (10 µM) and five-dose, SRB; assay type: cell-based, human
OVCAR-3 = experiment: as above; assay type: cell-based
Colon Cancer cell lines = experiment: NCI five-dose testing, subpanel (GI50 range, MID b, selectivity)
Description: as §1, §2
At the National Cancer Institute (NCI) in Bethesda, USA, researchers examined the anticancer potential of the target compounds under investigation using nine panels of sixty different cell lines obtained from nine different cancers that were housed in the NCI library. […] The anticancer screening was carried out at a single dose of 10^−5 M; the results obtained were expressed as growth inhibition (%).
The anti-cancer potential of the tested compounds was evaluated at the National cancer institute (NCI), Bethesda, USA, against 9 panels of 60 various cell lines derived from nine human tumours available usually at NCI library. […] The anticancer screening was carried out at single dose of 10^-5 M. The results obtained as growth inhibition (%).
as §3
compounds were added to the microtiter plates followed by incubation for further 48 h at 37 °C, 5% CO2, 95% air and 100% relative humidity. Fixation of cancer cell lines is carried out through gentle addition of 50 μL of cold 50 %w/v TCA (final concentration, 10% TCA) then incubated for 60 min. at 4 °C. The plates are washed five times with tap water after getting rid of the supernatant and allowed to dry in air. Sulforhodamine B (SRB) solution (100 μL) at 0.4% w/v in 1% acetic

LOX IMVI = experiment: NCI-60 screening, one-dose (10 µM) and five-dose, SRB; assay type: cell-based, human
SK-MEL-28 = experiment: as above; assay type: cell-based, human
[2] = Homo sapiens, five-dose, read-out: LC50 (the source's name)
[3] = Homo sapiens, five-dose, SF-268
[4] = Homo sapiens, five-dose, OVCAR-4
[5] = Homo sapiens, five-dose, UACC-62
[6] = Homo sapiens, five-dose, SW-620
[7] = Homo sapiens, five-dose, NCI-H460
[8] = Homo sapiens, five-dose, COLO 205
[9] = Homo sapiens, IGROV-1, five-dose, IGROV1
[10] = Homo sapiens, five-dose, OVCAR-3
[11] = Homo sapiens, five-dose, SK-MEL-28

Cc1nc(SCC(=O)N2CCN(c3cc4c(cc3F)c(=O)c(C(=O)O)cn4C3CC3)CC2)sc1C(=O)/C=C/c1cccc(Cl)c1 [Compound 4b, (E)-7-(4-(2-((5-(3-(3-Chlorophenyl)acryloyl)-4-methylthiazol-2-yl)thio)acetyl)piperazin-1-yl)-1-cyclopropyl-6-fluoro-4-oxo-1,4-dihydroquinoline-3-carboxylic Acid]
CC50 (CAKI-1; Homo sapiens, read-out: LC50 (the source's name)): > 100 µM | TGI (CAKI-1): 100.0 µM | activity at 10 µM (SN12C; Homo sapiens, 10 μM, Renal Cancer, read-out: Growth percentage): 51% | GI50 (SN12C; Homo sapiens, five-dose): 44.7 µM | IC50 (SN12C; Homo sapiens, five-dose): > 100 µM | CC50 (SN12C; [2]): > 100 µM | TGI (SN12C; five-dose): 100.0 µM | activity at 10 µM (SF-268; Homo sapiens, 10 μM, SF-268, CNS Cancer, read-out: Growth percentage): 76.1% | GI50 (SF-268; [3]): 22.4 µM | IC50 (SF-268; [3]): 53.7 µM | CC50 (SF-268; Homo sapiens, five-dose, SF-268, read-out: LC50 (the source's name)): > 100 µM | TGI (SF-268; five-dose, SF-268): 93.3 µM | activity at 10 µM (OVCAR-4; Homo sapiens, 10 μM, OVCAR-4, Ovarian Cancer, read-out: Growth percentage): 106% | GI50 (OVCAR-4; [4]): > 100 µM | IC50 (OVCAR-4; [4]): > 100 µM | CC50 (OVCAR-4; Homo sapiens, five-dose, OVCAR-4, read-out: LC50 (the source's name)): > 100 µM | TGI (OVCAR-4; five-dose, OVCAR-4): 100.0 µM | IC50 (HL-60(TB); Homo sapiens, HL-60, five-dose): 3.7 µM | GI50 (HL-60(TB); Homo sapiens, five-dose): 2.6 µM | CC50 (HL-60(TB); [2]): 34.7 µM | TGI (HL-60(TB); five-dose): 11.2 µM | activity at 10 µM (786−0; Homo sapiens, 10 μM, 786−0, Renal Cancer, read-out: Growth percentage): 74.3% | GI50 (786−0; Homo sapiens, five-dose, 786−0): > 100 µM | IC50 (786−0; Homo sapiens, five-dose, 786−0): > 100 µM | CC50 (786−0; Homo sapiens, five-dose, 786−0, read-out: LC50 (the source's name)): > 100 µM | TGI (786−0; five-dose, 786−0): 100.0 µM | activity at 10 µM (UACC-62; Homo sapiens, 10 μM, UACC-62, Melanoma, read-out: Growth percentage): 76.3% | GI50 (UACC-62; [5]): 20.9 µM | IC50 (UACC-62; [5]): > 100 µM | CC50 (UACC-62; Homo sapiens, five-dose, UACC-62, read-out: LC50 (the source's name)): > 100 µM | TGI (UACC-62; five-dose, UACC-62): 100.0 µM | activity at 10 µM (SW-620; Homo sapiens, 10 μM, SW-620, Colon Cancer, read-out: Growth percentage): 53.3% | GI50 (SW-620; [6]): 10.5 µM | IC50 (SW-620; [6]): 15.1 µM | CC50 (SW-620; Homo sapiens, five-dose, SW-620, read-out: LC50 (the source's name)): > 100 µM | TGI (SW-620; five-dose, SW-620): 40.7 µM | activity at 10 µM (NCI-H460; Homo sapiens, NCI-H460, 10 μM, NCI-H460, Non-Small-Cell Lung Cancer, read-out: Growth percentage): 76.7% | GI50 (NCI-H460; [7]): 58.9 µM | IC50 (NCI-H460; [7]): 70.8 µM | CC50 (NCI-H460; Homo sapiens, five-dose, NCI-H460, read-out: LC50 (the source's name)): > 100 µM | TGI (NCI-H460; five-dose, NCI-H460): 100.0 µM | activity at 10 µM (COLO 205; Homo sapiens, 10 μM, COLO 205, Colon Cancer, read-out: Growth percentage): 114% | GI50 (COLO 205; [8]): 4.3 µM | IC50 (COLO 205; [8]): 6.2 µM | CC50 (COLO 205; Homo sapiens, five-dose, COLO 205, read-out: LC50 (the source's name)): > 100 µM | TGI (COLO 205; five-dose, COLO 205): 100.0 µM | CC50 ([1]; Homo sapiens, read-out: LC50): 0.6 to 100 µM | activity at 10 µM ([1]; Homo sapiens, read-out: Mean growth percentage): 49.6% | Full-panel MG-MID ([1]; mean sensitivity across all cell lines in the panel): 70.3 µM | Growth percentage (IGROV1; 10 μM, IGROV1, Ovarian Cancer): 73.9% | GI50 (IGROV1; [9]): > 100 µM | IC50 (IGROV1; [9]): > 100 µM | CC50 (IGROV1; Homo sapiens, IGROV-1, five-dose, IGROV1, read-out: LC50 (the source's name)): > 100 µM | TGI (IGROV1; five-dose, IGROV1): 100.0 µM | activity at 10 µM (OVCAR-3; Homo sapiens, 10 μM, OVCAR-3, Ovarian Cancer, read-out: Growth percentage): 13.9% | GI50 (OVCAR-3; [10]): 22.9 µM | IC50 (OVCAR-3; [10]): 41.7 µM | CC50 (OVCAR-3; Homo sapiens, five-dose, OVCAR-3, read-out: LC50 (the source's name)): > 100 µM | TGI (OVCAR-3; five-dose, OVCAR-3): 52.5 µM | GI50 (Colon Cancer cell lines; Homo sapiens): 0.3 to 15.1 µM | SI (Colon Cancer cell lines; full-panel MG-MID / subpanel MG-MID, Colon Cancer): 2.18 | MG-MID (Colon Cancer cell lines; mean activity across subpanel Colon Cancer): 32.16 µM | activity at 10 µM (LOX IMVI; Homo sapiens, 10 μM, Melanoma, read-out: Growth percentage): 36.9% | GI50 (LOX IMVI; Homo sapiens, five-dose): 2.4 µM | IC50 (LOX IMVI; Homo sapiens, five-dose): 3 µM | CC50 (LOX IMVI; [2]): > 100 µM | TGI (LOX IMVI; five-dose): 100.0 µM | activity at 10 µM (SK-MEL-28; Homo sapiens, 10 μM, SK-MEL-28, Melanoma, read-out: Growth percentage): 84.1% | GI50 (SK-MEL-28; [11]): 26.9 µM | IC50 (SK-MEL-28; [11]): 87.1 µM | CC50 (SK-MEL-28; Homo sapiens, five-dose, SK-MEL-28, read-out: LC50 (the source's name)): > 100 µM | TGI (SK-MEL-28; five-dose, SK-MEL-28): 100.0 µM
